What all share (assay type): physicochemical
Data set [1] in a line: Stability test, optical purity by chiral HPLC. The following applies: 40° C./75% RH (closed and open condition), 24 hours. Here is the method: The optical purity was also measured by the following HPLC condition • Detector: UV at 240 nm • Column: […] IE (4.6×250 mm, 5 μm)/Daicel corp. • Column temperature: 40° C. • Mobile phase: n-hexane/ethanol/ethanolamine/acetic acid (65:35:0.5:0.2) • Flow rate: 1.0 mL/min • Injection: 5 μL • Sample temperature: 5° C. • Time span of measurement: 40 min Limit of Quantitation (LOQ): • Compound—RR,RS,SS: 0.05%
The optical purity was measured also with added 0.2% optical isomer.
The solid stability of the exemplary sample of the present invention and the free form obtained above was tested before and after the sample was stored at 40° C./75% RH (closed and open condition) for 24 hours.

Data set [2] in a line: Hygroscopicity: moisture adsorption/desorption test. Conditions: relative humidity of 95%, 25° C. The method, then:
The moisture adsorption/desorption test was carried out according to the following conditions.
Approximately 10 to 15 mg of the sample was filled in a dedicated quartz holder, and the weight of each sample at each humidity was continuously measured and recorded under the following conditions.

The next data set in a line: Solubility test. The following applies: for Solubility: 2 hours; for solubility at 2 h: 37 °C, thermodynamic from solid. The method, then:
About 15 mg of the exemplary sample of the present invention was added to 1 mL of each solvent and was swelled at 37° C. for 2 hours under light resistant condition. After centrifugation, each supernatant was filtered, and 0.7 mL of a mixture of water and acetonitrile (1:1) was added to 0.1 mL of the filtrate.
Following of mobile phase: Control the gradient by mixing the mobile phase A and B as directed in the following table below • Flow rate: 1.0 mL per minutes • Time span of measurement: For 12 minutes after injection

Converted amounts (≈) assume the structure as drawn.

As usually defined, the Solubility is the concentration that dissolves in the medium under given conditions. A lower Solubility goes with a poorly soluble substance. `Cc1ccc(F)c([C@@H](C)[C@H](NS(=O)(=O)c2ccc(Cl)cc2C(N)=O)c2n[nH]c(=O)o2)c1C` [Exemplary Sample, 5-chloro-2-(N-((1S,2R)-2-(6-fluoro-2,3-dimethylphenyl)-1-(5-oxo-4,5-dihydro-1,3,4-oxadiazol-2-yl)propyl)sulfamoyl)benzamide]: in data set [1], the “change in the optical purity after storage” value is on record as “No significant change”. The “hygroscopicity: mass change in moisture adsorption/desorption test” value in data set [2] (listed as obtained product) is given as “about 0.1%”. The Solubility was found to be 0.23 mg/mL (≈ 476 µM) in the data set “Solubility test” (First fluid for dissolution test, pH 1.2, 37° C.) and 0.23 mg/mL (≈ 476 µM) in “Solubility test” (water, 37° C.).
As a reminder, the solubility is the concentration that dissolves in the medium under given conditions. As to `Cc1ccc(F)c([C@@H](C)[C@H](NS(=O)(=O)c2ccc(Cl)cc2C(N)=O)c2n[nH]c(=O)o2)c1C` [Comparative Example, 5-chloro-2-(N-((1S,2R)-2-(6-fluoro-2,3-dimethylphenyl)-1-(5-oxo-4,5-dihydro-1,3,4-oxadiazol-2-yl)propyl)sulfamoyl)benzamide], the “change in the optical purity after storage” value in data set [1] was “No significant change”. Also, the “hygroscopicity: mass change in moisture adsorption/desorption test” value in data set [2] (listed as free form) is given as “about 3.8%”. Further, the solubility at 2 h was 0.25 mg/mL (≈ 518 µM) in “Solubility test” (50 mM acetate buffer, pH 4, aqueous buffer, Acetate buffer (50 mM, pH 4.0)); 0.19 mg/mL (≈ 393 µM) in “Solubility test” (0.5% HPMC, aqueous with cosolvent or surfactant or cyclodextrin); 0.23 mg/mL (≈ 476 µM) in the data set “Solubility test” (First fluid for dissolution test, pH 1.2, simulated gastric fluid, pH 1.2, 37° C.); 0.8 mg/mL (≈ 1660 µM) in the data set “Solubility test” (Second fluid for dissolution test, pH 6.8, aqueous buffer, pH 6.8, 37° C.); 0.23 mg/mL (≈ 476 µM) in the data set “Solubility test” (water).

Source of the values: patent publication US12344588B2, “Sulfonamide compounds and use thereof” (Taiho Pharmaceutical Co., Ltd., priority 2017, dated 2025).
